Measurements taken from patent publication US20250333398A1, “MONOARYL AND HETARYL SUBSTITUTED INDAZOLES AND BENZIMIDAZOLES AS STING ANTAGONISTS AND THE USE THEREOF AS MEDICAMENT” (Boehringer Ingelheim International GmbH, priority 2024, published 2025).

What was measured:
[1] = system: T1, wild-type (GRR) human STING cGAMP binding domain (residues 155-341); test: Differential Scanning Fluorimetry (DSF), stability of STING protein against thermal denaturation; settings: 100 uM compound, 3 uM target protein
T1 construct: His-TEV-hSTING (WT); TEV protease cleavage site (N); made in house; host or cells: E. coli BL21 DE3
Procedure: Dye fluorescence is quenched in aqueous environment and increases upon association of the dye with the hydrophobic parts of the unfolding protein. […] The inflection point of the curve represents the “melting” temperature of the protein (Tm) which is calculated numerically using the Boltzmann equation.
Method: The thermal stability of the STING protein was measured using a specific expression construct of the cGAMP binding domain of wild-type (GRR) human STING comprising residues 155-341 and a N-terminal 8x His-tag in assay buffer containing 20 mM Tris, 150 mM NaCl at pH7.5.
The assay uses Hard-Shell®PCR Plates 384-Well CLR/WHT (Catalog #HSP3805, BIO-RAD), Microseal®‘B’ Adhesive Seals for PCR Plates (Catalog #MSB-1001, BIO-RAD) and was run on a CFX384 Real-Time System (Bio-Rad).
A DMSO stock solution of SYPRO orange (SIGMA S5692-500UL) was prepared.
Compound stock solutions (10 mM in DMSO) were diluted 1:2 in DMSO to an intermediate compound concentration of 5 mM and then further diluted 1:40 in assay buffer resulting in a compound concentration of 125 μM and 2.5% DMSO.
Fluorescent dye stock solution (5000×SYPRO Orange) was then mixed with target protein and buffer to a concentration of 15 uM Protein and 25×SYPRO Orange. 2 ul of this protein-dye-mixture was added to 8 ul compound solution. Final volume was 10 uL. 3-6 well positions were used as negative control (protein with 2% DMSO). The plates were prepared for duplicate measurement and centrifuged for 2 min at 1000 g. In the measurement, 160 cycles of 0.5° C. were used (temperature ramp 15 s/cycle, 15° C. to 95° C.).
Final Assay concentrations for compound characterization were as follows:
100 uM compound, 3 uM target protein, 5×SYPRO Orange, 2% DMSO in 10 ul. All dispensing steps were performed using a HamiltonStar pipetting robot (Hamilton).
Dissociation curves were processed in Bio-Rad CFX Manager. Peak type was set to “negative”.
Compound codes for screen were assigned in the plate layout.
Two replicates of TM measurements were averaged, and the standard deviation was calculated. In cases of SD>1.5° C. the measurement was repeated.
The melting point (Tm) obtained for STING protein alone was subtracted from T obtained for protein incubated with ligand to generate ΔTm values.
Protein production and purification: The protein used for the biophysical experiments was a recombinant human STING protein comprising its cytosolic ectodomain. A codon optimized DNA sequence (for expression in Escherichia coli) encoding amino acid residues 155 to 341 (Swiss Prot Q86WV6) of human STING (WT) was synthesized by GeneArt (Regensburg, Germany) and inserted into a pET17b E. coli expression vector. The protein construct encodes an N-terminal 8× His-tag followed by tobacco etch virus protease (TEV) cleavage site and the above STING gene sequence. The resulting protein sequence for the used STING variant is listed below:
For expression of recombinant human STING above construct was transformed into E. coli BL21 DE3 strain and grown in shake flasks in LB-medium at 37° C. Expression was induced by addition of isopropyl β-D-1-thiogalactopyranoside to a final concentration of 1 mM and cultures shaken overnight. Cell pellets were centrifuged and stored at −70° C. until further use. Protein was purified by cell thawing in lysis buffer (20 mM TRIS-HCl, pH 8, 300 mM NaCl, 2 mM mercaptoethanol, 20 mM imidazole, Complete Protease Inhibitor (Roche) and DNase (Roche)), followed by metal affinity purification using Ni-NTA resins and elution buffer consisting of 20 mM TRIS-HCl, pH 8, 300 mM NaCl, 2 mM mercaptoethanol, 300 mM imidazole and size exclusion chromatography in running buffer (20 mM TRIS-HCl, pH 8, 100 mM NaCl, 2 mM DTT). The peak fraction was collected and concentrated to 2.5 mg/mL.

human STING WT (R232) = target: T2, human STING WT (R232); test: Human STING HTRF binding assay (competitive, Cisbio 64BDSTGPEG); settings: 6His tagged human STING WT R232, competition with STING ligand-d2
T2 construct: purchased Cisbio 64BDSTGPEG
Procedure: Binders to human STING WT (R232) were identified using a competitive HTRF assay format (Cisbio 64BDSTGPEG), which uses d2-labeled STING ligand, a 6His tagged human STING protein, and an anti 6His Cryptate-labeled antibody. Compounds compete with the STING ligand-d2 and thereby prevents FRET from occurring, which can be measured by an EnVision™ reader (PerkinElmer).
Assay method: Compounds were delivered as 10 mM DMSO solution, serially diluted by an Agilent Bravo Workstation and transferred to the 384 well assay plate (Perkin Elmer #6005359) using a Cybiwell dispenser. Typically, 8 concentrations were used with the highest concentration at 10 μM or 1 μM in the final assay volume followed by ^˜1:5 dilution steps. DMSO concentration was set to 1% in the final assay volume. The 384 well assay plate contained 20 test compounds and DMSO in column 23 and 24. A cGAMP standard dilution row was prepared according to the manufacturer and transferred to each assay plate. After transfer of compound solution or dilution buffer for negative (high) and positive (low) controls, 5 μl of the human STING protein (cyclic binding domain (residues 138-379) of the WT R232 human version, fused to a 6 His tag at the Nter part; 1:50 dilution in detection buffer) were dispensed to all wells except of the positive control, which received detection buffer only. Plates were the centrifuged for 20 sec at 1000 rpm. After that, 10 μl of Anti-6His-Cryptate antibody/Sting ligand-d2 mix was added to all wells using a Multidrop combi dispenser, followed by another 20 sec/1000 rpm centrifugation step. After an incubation of the plates for 180 min at room temperature, […] at […] (HTRF ratio) was measured using an Envison Reader (PerkinElmer)
Data evaluation and calculation: For data evaluation and calculation, HTRF ratios were calibrated using the cGAMP standard curve. After that, the measurement of the low control was set as 0% control and the measurement of the high control was set as 100% control. The IC50 values were calculated using the standard 4 parameter logistic regression formula. Calculation: [y=(a−d)/(1+(x/c)^b)+d], a=low value, d=high value; x=conc M; c=IC50 M; b=slope;

COc1nn(C2CC2)cc1-n1cc2c(-c3nc(-c4ccc(C(=O)N(C)C)cc4OC(F)(F)F)n(C)c3C3CC3)cccc2n1 [Example 15, 4-{5-cyclopropyl-4-[2-(1-cyclopropyl-3-methoxy-1H-pyrazol-4-yl)-2H-indazol-4-yl]-1-methyl-1H-imidazol-2-yl}-N,N-dimethyl-3-(trifluoromethoxy)benzamide]
DSF ΔTm (K) [1]: 25 K
IC50 (human STING WT (R232)): 32.9 nM

Cn1nc(-n2cc3c(-c4nc(-c5ccc(C(N)=O)cc5OC(F)(F)F)n(C)c4C4CC4)cccc3n2)cc1C(F)(F)F [Example 8, 4-(5-cyclopropyl-1-methyl-4-{2-[1-methyl-5-(trifluoromethyl)-1H-pyrazol-3-yl]-2H-indazol-4-yl}-1H-imidazol-2-yl)-3-(trifluoromethoxy)benzamide]
DSF ΔTm (K) [1]: 32 K
IC50 (human STING WT (R232)): 85.3 nM

COc1nn(C)cc1-n1cc2c(-c3nc(-c4ccc(C(=O)N(C)C)cc4OC(F)(F)F)n(C)c3C3CC3)cccc2n1 [Example 3, 4-{5-cyclopropyl-4-[2-(3-methoxy-1-methyl-1H-pyrazol-4-yl)-2H-indazol-4-yl]-1-methyl-1H-imidazol-2-yl}-N,N-dimethyl-3-(trifluoromethoxy)benzamide]
DSF ΔTm (K) [1]: 26 K
IC50 (human STING WT (R232)): 122 nM

COc1nn(C2CC2)cc1-n1cc2c(-c3nc(-c4ccc(C(N)=O)cc4OC(F)(F)F)n(C)c3C3CC3)cccc2n1 [Example 16, 4-{5-cyclopropyl-4-[2-(1-cyclopropyl-3-methoxy-1H-pyrazol-4-yl)-2H-indazol-4-yl]-1-methyl-1H-imidazol-2-yl}-3-(trifluoromethoxy)benzamide]
DSF ΔTm (K) [1]: 32 K
IC50 (human STING WT (R232)): 13.8 nM

COc1nn(C2CC2)cc1-n1cc2c(-c3nn(-c4ccc(P(C)(C)=O)cc4C)c(C)c3C(C)C)cccc2n1 [Example 9, 2-(1-cyclopropyl-3-methoxy-1H-pyrazol-4-yl)-4-{1-[4-(dimethylphosphoryl)-2-methylphenyl]-5-methyl-4-(propan-2-yl)-1H-pyrazol-3-yl}-2H-indazole]
DSF ΔTm (K) [1]: 22 K
IC50 (human STING WT (R232)): 17.6 nM
